System: 11G2L cDNA (creatine transporter mRNA)
Assay: Differential display of hypothalamic mRNA (band 11G2L)
Format: in vivo, rat
Settings: icv CoPP 0.4 umol/kg, 48 hours, absent in vehicle fed and fasted rats
Protocol: RNA Extraction from Rat Hypothalamus. Adult male Sprague-Dawley rats were randomly separated into three groups. Group 1 (control) was injected icv with saline and fed ad lib. Group 2 (fasted) was injected icv with saline and allowed ad lib access to water only; Group 3 (CoPP) was injected icv with CoPP 0.4 umol/kg body weight and fed ad lib. After 24 and 48 hours, weights were measured. Only those rats with robust weight loss of at least 10% of initial body weight 48 hours after treatment were chosen for the CoPP group. Eleven rats from each group were then killed by decapitation, using procedures outlined in the Animal Welfare Act and as approved by the University of Vermont, Office of Animal Care Management. The hypothalamic block of each rat was dissected from the rat's brain as described and immediately homogenized with RNase-free homogenizer. Total RNA was extracted using an Ultraspec-II RNA kit (Biotecx Laboratories, Inc., Houston, Tex.) following the manufacturer's procedures and stored at −80 degrees C. until analysis.
Differential Display-Reverse Transcription-Polymerase Chain Reaction (DD-RT-P). The RNAimage mRNA Differential Display system was purchased from GenHunter Corporation (Nashville, Tenn.). Three anchored H-T11M (where M refer to G, A, or C) primers and 12 sets of arbitrary primers (HAP 1 to 12) were chosen to use in this particular experiment. […]

C=Cc1c(C)c2cc3[nH]c(cc4nc(cc5nc(cc1[nH]2)C(C)=C5CCC(=O)[O-])C(CCC(=O)[O-])=C4C)c(C)c3C=C.[Co+2] [CoPP, Cobaltic protoporphyrin IX]
cDNA band 11G2L in differential display: present

Source: US20090305225A1, “Inhibition of Creatine Uptake to Promote Weight Loss” (priority 2005, published 2009)
